Laboratory results from patent US8158340B2, “Methods for detecting conformational changes in bioentities” (Corning Incorporated, priority 2005, dated 2012).
Counter-ions that a name gives are not always drawn. Each block holds one molecule with its values, some of them ahead of it.

Experiments:
[1] = biological target: T1, H.S.A. (Homo sapiens, UniProt P02768); experiment: Tryptic digestion of H.S.A. after chemical modification; format: biochemical; conditions: 5 minute treatment of 2,3-butanedione; FIG. 20
T1 sequence (P02768 25-609): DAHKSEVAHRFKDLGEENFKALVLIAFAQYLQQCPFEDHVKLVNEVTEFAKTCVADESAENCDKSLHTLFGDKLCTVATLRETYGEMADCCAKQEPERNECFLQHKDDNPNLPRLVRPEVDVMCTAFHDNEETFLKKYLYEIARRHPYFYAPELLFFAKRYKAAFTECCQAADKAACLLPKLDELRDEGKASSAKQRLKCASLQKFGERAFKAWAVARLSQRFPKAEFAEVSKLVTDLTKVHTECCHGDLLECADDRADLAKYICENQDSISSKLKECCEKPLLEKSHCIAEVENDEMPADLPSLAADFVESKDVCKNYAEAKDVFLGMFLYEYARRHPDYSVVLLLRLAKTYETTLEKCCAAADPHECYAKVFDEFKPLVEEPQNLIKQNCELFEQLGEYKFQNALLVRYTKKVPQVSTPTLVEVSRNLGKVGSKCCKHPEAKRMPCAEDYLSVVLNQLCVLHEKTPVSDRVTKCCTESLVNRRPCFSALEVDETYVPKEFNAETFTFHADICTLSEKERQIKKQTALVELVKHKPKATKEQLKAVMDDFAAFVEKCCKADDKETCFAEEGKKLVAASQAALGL
Text: In this type of assay, the digestion signal can be used as a means for screening large compound libraries for modulators of digestion (i.e. inhibitors or enhancers). The digestion inhibitors could be directed against-any lytic agent including but not limited to peptidases (as in the Caspase assay), proteases, nucleases, glucuronidase, glucosidase, lipases and the like. The assay is capable of detecting small molecule inhibitors of digestion of any molecular weight size. […] The extent to which an inhibitor can prevent digestion is assayed. […] The bar in FIG. 20, labeled 2,3-butanedione represents the net tryptic digestion of H.S.A. after a 5 minute treatment of 2,3-butanedione. The chemical 2,3-butanedione is an effective chemical modifier of amino acids such as lysine or arginine and is known in the art as an effective inhibitor of trypsin digestion via target modification.

[2] = biological target: T1, H.S.A.; experiment: Percent crosslinking of H.S.A. with glutaraldehyde in presence of denaturants; format: biochemical; conditions: as the concentration of denaturing agent increased; FIGS. 7-10
Experimental: The fractional amount of chemical crosslinking was measured by taking the ratio of added crosslinker attached to the protein relative to amount of initial protein on the sensor. Initially, protein is immobilized and washed on the Epic™ sensor and then measured for amount of immobilized protein. The protein is exposed to glutaraldehyde with a specified solution condition. The mass change that resulted from crosslinking is recorded again on the Epic™ system. The ratio of picometer change by crosslinker (due to mass increase) to mass of protein immobilized (as measured by initial change in picometer due to protein immobilization) is referred to as the fractional amount of crosslinking (% XL or % crosslinking), which is depicted in FIG. 6. This mass change by chemical crosslinking provides a “snap shot” of the conformational state accessible to cross linker.
As a protein or bioentity is denatured it should unfold and thereby increase the number of available sites for crosslinking.

[3] = biological target: T2, Calmodulin (CAM) (Homo sapiens, UniProt P0DP23); experiment: Surrogate binding: calcium additions to immobilized calmodulin on Epic biosensor; conditions: nine additions of 200 μM calcium chloride
T2 construct: purchased Upstate cell signaling solutions 14-368
Text: In this assay, the detection of macromolecular events whose mass changes are below detection due to sparingly low refractive index changes on a biosensor are consequentially assayed through surrogate associations that are then detectable by refractive index changes (i.e., any event (ion or not) which conveys a signature through association and is assayable on a biosensor).
Calmodulin (CAM) is a classic calcium binding protein. It binds four calcium ions per protein. At saturation, four ligands at a mass of 40 Daltons equals 160 Dalton is produced. This mass is expected to be below normal direct bind detection. However, upon calcium binding CAM undergoes a dramatic conformational transition. The physical changes by CAM play a crucial role in the functioning of this molecule in vivo. Fluorescent probes that sense hydrophobic transitions have been used for more than a decade. […] Calmodulin was chosen as the model system for the concept of surrogate direct binding because the binding of calcium to this protein should not be readily detectable on a biosensor (4×40 Dalton for calcium=160 Da).
CAM was ordered through Upstate cell signaling solutions (Cat #14-368). […] Yet, when a hydrophobic probe is employed (a surrogate direct bind probe), a calcium modulation interaction is detected.

[4] = biological target: equine cytochrome C (Equus caballus, UniProt P00004); experiment: Catalytic digestion: trypsin digestion of immobilized cytochrome C with degrading catalyst; format: biochemical; conditions: 15 units of trypsin per well, FIG. 2
equine cytochrome C, sequence (P00004 whole entry): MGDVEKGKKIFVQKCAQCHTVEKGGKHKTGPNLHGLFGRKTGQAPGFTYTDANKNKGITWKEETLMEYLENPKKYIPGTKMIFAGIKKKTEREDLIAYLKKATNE
Experimental: Chem. Soc., 2004, 126:12833-12842 and tested as a degrading catalyst. On the Epic™ System, equine cytochrome C was chemically immobilized onto the EMA surface. The comparative trypsin digestion on the Epic™ system was measured. […] In these assays, 15 units of trypsin were used in each well. No titration was done for the enzyme, the cytochrome protein or the copper II porphyrin.

[5] = biological target: T1, H.S.A.; experiment: Conformational mode locking: trypsin digestion of H.S.A. after glutaraldehyde crosslinking; format: biochemical; conditions: 10% glutaraldehyde in 0.1 M phosphate pH 7
Text: The use of covalent chemical crosslinking as a way of assaying conformational states or transitions of bioentities was investigated. H.S.A. was immobilized on an Epic™ sensor. The protein was crosslinked with glutaraldehyde under a variety of conditions (FIG. 5). Glutaraldehyde is a small molecular weight organic chemical (100 Dalton). It can undergo a variety of chemical crosslinking events with either itself or several amino acids. For this study, 10% glutaraldehyde in 0.1 M phosphate pH 7 was used. This was done to avoid the possibility of polymeric glut from forming. The amount of protein immobilized on the surface was also measured as well as the amount of chemical crosslinking and trypsin digestion. […] This effect was expected since crosslinking should affix the protein to the surface and render mass loss incapable. This finding should permit the ability to immobilize affinity capture molecules like antibodies and streptavidin and after crosslinking prevent their digestion. These crosslinked capture structures can then be used to specifically orient their antigens for antigen specific digestion.

[6] = system: trypsin; experiment: Trypsin digestion of standard fluorescent substrate BZIP plus warfarin (specificity control); format: biochemical
Text: It is contemplated that any conformationally altered ligand-bioentity complex can be further confirmed or characterized through secondary analysis such as peptide digest mapping, deuterium exchange studies, Michaelis-Menten kinetic studies, circular dichroism, intrinsic fluorescence analysis, competition studies with fluorescence polarization assays and the like. In addition, the effects that a ligand or putative ligand may have on the digesting agent may be analyzed using a known non-binding agent or through kinetic analysis using fluorescent assays or absorbance assays. For example, rhodamine 110, bis-(CBZ-L-isoleucyl-L-prolyl-L-arginine amide), dihydrochloride (BZiPAR, Invitrogen Inc.) may be used in fluorescence assays with trypsin and a putative ligand. Similarly, Nα-benzoyl-L-arginine ethyl ester hydrochloride (BAEE) may also be used for spectrophotometric assays with trypsin and other proteases.
(§1) The data indicates several properties.

[7] = system: rabbit IgG; experiment: Trypsin digestion of rabbit IgG plus warfarin (specificity control); format: biochemical; conditions: generic protein control
Text: as §1

[8] = system: trypsin or chymotrypsin; experiment: Conformational assay: label-independent digestion of immobilized albumins; format: biochemical; conditions: relative to normal BSA; FIGS. 3 and 4
Experimental: In this assay, it was determined whether or not a label-independent detection assay can distinguish between different albumins by digestion with either trypsin or chymotrypsin on the Epic™ system.

[9] = system: trypsin; experiment: Comparative trypsin digestion of myoglobin, apomyoglobin and heme-inserted apomyoglobin on Epic system; format: biochemical; conditions: approximately 23 minutes; for trypsin digestion (refractive index change): 15 units of trypsin in 1× PBS, FIGS. 18 and 19
Experimental: The heme inserted wells as well as the apoprotein and myoglobin wells were digested using 15 units of trypsin in 1× PBS. The digestion process was allowed to proceed for approximately 23 minutes with continuous monitoring of refractive index changes on the LID system. The hierarchy of digestion followed the following order; myoglobin (−250 pm)<apomyoglobin with heme (−350 pm)<apomyoglobin (−500 pm) (FIGS. 18 and 19). […] The difference between the native myoglobin and the heme inserted apomyoglobin may be a result of slight denaturation effects that were introduced in the preparation of the apomyoglobin protein.

Molecule: CC(=O)C(C)=O [2,3-butanedione]
net tryptic digestion of H.S.A. after chemical modification [1]: digestion is effected by chemical modification

percent crosslinking of H.S.A. with glutaraldehyde [2]: increasing percent crosslinking
Molecule: [Cl-].[Cl-].[Mg+2] [MgCl]

Molecule: [Cl-].[Na+] [NaCl]
percent crosslinking of H.S.A. with glutaraldehyde [2]: increasing percent crosslinking

percent crosslinking of H.S.A. with glutaraldehyde [2]: increasing percent crosslinking
Molecule: NC(N)=O [Urea]

Molecule: [Ca+2].[Cl-].[Cl-] [calcium chloride]
binding detection of calcium to CAM with surrogate probe ([3]; 100 μM ANS hydrophobic probe present): binding event | direct bind detection of calcium to CAM ([3]; CAM in 1×PBS without probe, relative to blocked wells): no binding data

Molecule: O=C(O)c1ccc(-c2c3nc(c(-c4ccc(C(=O)O)cc4)c4ccc([nH]4)c(-c4ccc(C(=O)O)cc4)c4nc(c(-c5ccc(C(=O)O)cc5)c5ccc2[nH]5)C=C4)C=C3)cc1.[Cu+2] [copper (II) tetra-(4-carboxyphenyl)porphyrin]
trypsin digestion of cytochrome C with degrading catalyst [4]: significant enhancement of digestion

proteolytic (trypsin) digestion of H.S.A. after chemical crosslinking [5]: dramatically inhibited/attenuated
Molecule: O=CCCCC=O [glutaraldehyde]

percent crosslinking of H.S.A. with glutaraldehyde [2]: increasing percent crosslinking
Molecule: N=C(N)N [guanidine HCL]

Molecule: CC(=O)CC(c1ccccc1)c1c(O)c2ccccc2oc1=O (centres unmarked) [warfarin]
reduction in trypsin digestion rate, BZIP plus warfarin [6]: no such reduction in digestion rate was observed | reduction in trypsin digestion rate, rabbit IgG plus warfarin [7]: no such reduction in digestion rate was observed

Molecule: acetylated BSA: acetylated bovine serum albumin immobilized on the biosensor
digestion profile of immobilized albumin [8]: dramatic enhanced digestion profile

Molecule: heme
reduction in digestion of apomyoglobin caused by heme insertion ([9]; 15 units of trypsin): 140 picometer

Molecule: methylated BSA: methylated bovine serum albumin immobilized on the biosensor
digestion profile of immobilized albumin [8]: dramatic reduction in digestion rates

B1: myoglobin: native horse myoglobin (protein, UniProt P68082 2-154, looked up)
Myoglobin: GLSDGEWQQVLNVWGKVEADIAGHGQEVLIRLFTGHPETLEKFDKFKHLKTEAEMKASEDLKKHGTVVLTALGGILKKKGHHEAELKPLAQSHATKHKIPIKYLEFISDAIIHVLHSKHPGDFGADAQGAMTKALELFRNDIAAKYKELGFQG
trypsin digestion (refractive index change) [9]: −250 pm

B2: apomyoglobin: horse apomyoglobin made by acid-acetone heme removal (protein, UniProt P68082 2-154, looked up)
Myoglobin: B1 Myoglobin
modifications: heme removed
notes: horse apomyoglobin made by acid-acetone heme removal
trypsin digestion (refractive index change) [9]: −500 pm

B3: apomyoglobin with heme: apomyoglobin after heme insertion with 2 μM hemin (protein, UniProt P68082 2-154, looked up)
Myoglobin: B1 Myoglobin
modifications: heme reconstituted
notes: apomyoglobin after heme insertion with 2 μM hemin
trypsin digestion (refractive index change) [9]: −350 pm
